Laboratory results: patent US10214542B2, “Modified macrocyclic compounds” (BAYER PHARMA AKTIENGESELLSCHAFT, priority 2015, dated 2019)
Values joined by “and” are separate entries in the source; they are usually repeats but may differ in a detail not shown here. Identical values can stand only once. Like-named read-outs stand apart in the source and are kept apart here. Marks after values point to notes of the source that are not given here.

How the values were obtained:
[1] = molecular target: T1, human PTEFb (CDK9/Cyclin T1) (Homo sapiens, UniProt P50750); experiment: Surface Plasmon Resonance PTEFb (Method 8); format: binding; conditions: 25° C., experimental parameters A-G per value; for Target resident time: 1/koff; for koff: read-out: Dissociation rate constant koff
T1 construct: purchased ProQinase, Freiburg, Germany
T1 sequence (P50750 whole entry): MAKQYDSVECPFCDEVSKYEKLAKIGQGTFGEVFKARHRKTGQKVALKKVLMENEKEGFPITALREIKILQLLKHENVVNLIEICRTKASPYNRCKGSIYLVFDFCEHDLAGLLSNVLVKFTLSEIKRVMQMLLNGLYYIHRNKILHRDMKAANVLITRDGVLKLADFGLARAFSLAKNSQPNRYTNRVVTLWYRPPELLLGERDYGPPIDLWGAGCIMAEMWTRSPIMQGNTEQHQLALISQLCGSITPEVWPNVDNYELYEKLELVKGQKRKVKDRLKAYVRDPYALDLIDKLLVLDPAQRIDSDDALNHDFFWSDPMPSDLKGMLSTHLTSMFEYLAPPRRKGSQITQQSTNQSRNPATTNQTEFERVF
T1 sequence (O60563 whole entry partner): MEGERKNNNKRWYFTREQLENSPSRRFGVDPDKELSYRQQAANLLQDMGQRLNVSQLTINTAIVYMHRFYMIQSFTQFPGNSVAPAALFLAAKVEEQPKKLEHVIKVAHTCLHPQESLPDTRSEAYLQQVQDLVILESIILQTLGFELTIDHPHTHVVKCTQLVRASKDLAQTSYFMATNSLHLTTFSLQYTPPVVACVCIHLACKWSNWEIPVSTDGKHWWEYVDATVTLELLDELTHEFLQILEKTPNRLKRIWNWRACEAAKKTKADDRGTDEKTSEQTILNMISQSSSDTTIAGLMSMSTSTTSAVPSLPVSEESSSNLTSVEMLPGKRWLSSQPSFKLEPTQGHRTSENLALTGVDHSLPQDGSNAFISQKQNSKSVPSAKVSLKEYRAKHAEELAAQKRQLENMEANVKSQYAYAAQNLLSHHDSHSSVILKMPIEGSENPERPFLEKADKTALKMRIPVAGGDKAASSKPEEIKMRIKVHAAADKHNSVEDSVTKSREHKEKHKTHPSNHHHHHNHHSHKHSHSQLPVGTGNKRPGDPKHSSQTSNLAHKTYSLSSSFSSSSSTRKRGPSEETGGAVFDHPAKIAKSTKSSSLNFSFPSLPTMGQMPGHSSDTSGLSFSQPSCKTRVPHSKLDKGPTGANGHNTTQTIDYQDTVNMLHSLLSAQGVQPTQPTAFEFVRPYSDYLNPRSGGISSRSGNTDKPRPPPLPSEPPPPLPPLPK
From the text: 8. Surface Plasmon Resonance PTEFb
The ability of the compounds according to the invention to bind human PTEFb may be determined using surface plasmon resonance (SPR). KD values and koff values may be measured using a Biacore® T200 instrument (GE Healthcare, Uppsala, Sweden).
For SPR measurements, recombinant human PTEFb (CDK9/Cyclin T1 recombinant human active protein kinase purchased from ProQinase, Freiburg, Germany) is immobilized using standard amine coupling (Johnsson B et al, Anal Biochem. 1991 Nov. 1; 198(2):268-77). Briefly, carboxymethylated dextran biosensor chips (CM7, GE Healthcare) are activated with N-ethyl-N′-(3-dimethylaminopropyl)-carbodiimide hydrochloride (EDC) and N-hydroxysuccinimide (NHS) according to the supplier's instructions. Human PTEFb is diluted in 1×HBS-EP+ (GE Healthcare) and injected on the activated chip surface. Subsequently, a 1:1 solution of 1 M ethanolamine-HCl (GE Healthcare) and 1×HBS-EP is injected to block unreacted groups, resulting in approximately 4000 response units (RU) of immobilized protein. A reference surface is generated by treatment with NHS-EDC and ethanolamine-HCl. Compounds are dissolved in 100% dimethylsulfoxide (DMSO, Sigma-Aldrich, Germany) to a concentration of 10 mM and subsequently diluted in running buffer (1×HBS-EP+ pH 7.4 [generated from HBS-EP+ Buffer 10× (GE Healthcare): 0.1 M HEPES, 1.5 M NaCl, 30 mM EDTA and 0.5% v/v Surfactant P20], 1% v/v DMSO). For kinetic measurements, serial dilutions of compound (0.82 nM up to 2 μM) are injected over immobilized protein. Binding kinetics is measured at 25° C. with a flow rate of 50 μl/min in running buffer. Compound concentrations are injected for 60 s followed by a dissociation time of 1800 s. The resulting sensorgrams are double-referenced against the reference surface as well as against blank injections.
The double-referenced sensorgrams are fit to a simple reversible Langmuir 1:1 reaction mechanism as implemented in the Biacore® T200 evaluation software 2.0 (GE Healthcare). In cases were full compound dissociation has not occurred at the end of the dissociation phase, the Rmax parameter (response at saturation) is fit as local variable. In all other cases, Rmax is fit as global variable.
Slight variations of experimental parameters are indicated by letters (A-G): […]

[2] = molecular target: T1, human PTEFb (CDK9/Cyclin T1); experiment: Surface Plasmon Resonance PTEFb (Method 8); format: binding; conditions: 37° C., experimental parameters E; for Target resident time: 1/koff; for koff: read-out: Dissociation rate constant koff

| Target resident time [1] | Dissociation rate constant koff [1] [s⁻¹] | koff [1] [s⁻¹] | Target resident time [2] | koff [2] [s⁻¹] | SMILES |
| --- | --- | --- | --- | --- | --- |
| 44.9 min and 33.1 min | 0.000504 | 0.000371 |  |  | CS(=O)(Cc1cc2nc(c1)Nc1cc(c(F)cn1)-c1ccc(F)cc1OCCCCN2)=NC(=O)OCc1ccccc1 (racemic) [Example 2, (rac)-Benzyl[{[16,20-difluoro-3,4,5,6-tetrahydro-2H,12H-11,7-(azeno)-13,17-(metheno)-1,6,12,14-benzoxatriazacyclononadecin-9-yl]methyl}(methyl)oxido-λ^6-sulfanylidene]carbamate] |
| 17.2 min |  | 0.000968 |  |  | C[S+]([O-])Cc1cc2nc(c1)OCCCCc1cc(F)ccc1-c1cc(ncc1F)N2 (racemic) [Example 5, (rac)-2,18-Difluoro-9-[(methylsulfinyl)methyl]-13,14,15,16-tetrahydro-6H-7,11-(azeno)-5,1-(metheno)-12,4,6-benzoxadiazacyclooctadecine] |
| >666* min |  | < 2.5e-05 |  |  | CC(C)(C)OC(=O)N=S(C)(=O)Cc1cc2nc(c1)Nc1cc(c(F)cn1)-c1ccc(F)cc1OCCCN2 (racemic) [Example 7, (rac)-tert-butyl[{[15,19-difluoro-2,3,4,5-tetrahydro-11H-10,6-(azeno)-16,12-(metheno)-1,5,11,13-benzoxatriazacyclooctadecin-8-yl]methyl}(methyl)oxido-λ^6-sulfanylidene]carbamate] |
| >666* min |  | < 2.5e-05 |  |  | CN1CCCCOc2cc(F)ccc2-c2cc(ncc2F)Nc2cc(CS(C)(=N)=O)cc1n2 (racemic) [Example 11, (rac)-16,20-difluoro-6-methyl-9-[(S-methylsulfonimidoyl)methyl]-3,4,5,6-tetrahydro-2H-7,11-(azeno)-17,13-(metheno)-1,6,12,14-benzoxatriazacyclononadecine] |
| > 666 min and 372.9 min | 4.47e-05 | < 2.5e-05 |  |  | CC(C)(C)OC(=O)N=S(C)(=O)Cc1cc2cc(c1)OCCCCNc1cc(F)ccc1-c1nc(ncc1F)N2 (racemic) [Example 15, (rac)-tert-butyl[{[16,20-difluoro-2,3,4,5-tetrahydro-1H,12H-13,17-(azeno)-11,7-(metheno)-6,1,12,14-benzoxatriazacyclononadecin-9-yl]methyl}(methyl)oxido-λ^6-sulfanylidene]carbamate] |
|  |  |  | 46.3* min | 0.00036 | CS(=N)(=O)Cc1cc2cc(c1)OCCCCNc1cc(F)ccc1-c1nc(ncc1F)N2 (racemic) [Example 16, (rac)-16,20-difluoro-9-[(S-methylsulfonimidoyl)methyl]-2,3,4,5-tetrahydro-1H-17,13-(azeno)-7,11-(metheno)-6,1,12,14-benzoxatriazacyclononadecine] |
|  |  |  | 115.7* min | 0.000144 | CN1CCCCNc2cc(F)ccc2-c2nc(ncc2F)Nc2cc(CS(C)(=N)=O)cc1c2.O=CO (racemic) [Example 17, (rac)-16,20-difluoro-6-methyl-9-[(S-methylsulfonimidoyl)methyl]-1,2,3,4,5,6-hexahydro-12H-17,13-(azeno)-11,7-(metheno)-1,6,12,14-benzotetraazacyclononadecine; salt with formic acid] |
| 4.8* min |  | 0.00345 |  |  | C[S+]([O-])Cc1cc2nc(c1)OCCCCCc1cc(F)ccc1-c1cc(ncc1F)N2 (racemic) [Example 19, (rac)-2,19-difluoro-9-[(methylsulfinyl)methyl]-14,15,16,17-tetrahydro-6H,13H-7,11-(azeno)-5,1-(metheno)-12,4,6-benzoxadiazacyclononadecine] |
| 14.7* min |  | 0.00113 |  |  | CS(=N)(=O)Cc1cc2nc(c1)OCCCCCc1cc(F)ccc1-c1cc(ncc1F)N2 (racemic) [Example 20, (rac)-2,19-difluoro-9-[(S-methylsulfonimidoyl)methyl]-14,15,16,17-tetrahydro-6H,13H-7,11-(azeno)-5,1-(metheno)-12,4,6-benzoxadiazacyclononadecine] |
|  |  |  | 17.5* min | 0.000954 | CS(=N)(=O)Cc1cc2cc(c1)OCCCCSc1cc(F)ccc1-c1nc(ncc1F)N2 (racemic) [Example 22, (rac)-16,20-difluoro-9-[(S-methylsulfonimidoyl)methyl]-2,3,4,5-tetrahydro-12H-17,13-(azeno)-11,7-(metheno)-6,1,12,14-benzoxathiadiazacyclononadecine] |
| 87.3* min |  | 0.000191 |  |  | CN1CCCCOc2cc(F)ccc2-c2nc(ncc2F)Nc2cc(CS(C)(=N)=O)cc1c2 (racemic) [Example 23, (rac)-16,20-difluoro-6-methyl-9-[(S-methylsulfonimidoyl)methyl]-3,4,5,6-tetrahydro-2H,12H-13,17-(azeno)-11,7-(metheno)-1,6,12,14-benzoxatriazacyclononadecine] |
| 14.6 min |  | 0.00114 |  |  | CSCc1cc2nc(c1)OCCCCc1cc(F)ccc1-c1cc(ncc1F)N2 [Example 4, 2,18-Difluoro-9-[(methylsulfanyl)methyl]-13,14,15,16-tetrahydro-6H-7,11-(azeno)-5,1-(metheno)-12,4,6-benzoxadiazacyclooctadecine] |
